Results on 3 molecules are retold here after US20080021105A1, “Medicine Capable of Inhibiting Activation of Transcription Factor Klf5” (THE UNIVERSITY OF TOKYO, priority 2004, published 2008).

The test system of data set [1] is vascular intimal hyperplasia resulted from vascular injury due to the cuff. The data set is described as follows: Mouse cuff-induced injury model, Example 3-2 (EVG staining). The following applies: for I/M ratio (mean ± S.D.): EVG staining, 5 weeks after cuff; for ratio of I/M (intima/media) compared with the control group: Example 3-2. Type of data set: in vivo, C57BL6/N mice. How it is done: Vascular remodeling analysis was performed by using a cuff-induced injury model. Usefulness of this model in relation to vascular remodeling has been reported (Physiol. Genomics, 2, pp.13-30, 2000; Circulation, 104, pp.2716-2721; Circulation, 106, pp.847-853, 2002). For this experiment, 8-week old male C57BL6/N mice (10 animals/group) were used. In an amount of 100 or 200 mg/kg of NIK-333 or 5 or 10 mg/kg of ATRA suspended in soybean oil was orally given once daily every day from 7 days before placement of a cuff (placement of polyethylene tube around blood vessel) to the day before sacrifice. The control group were received soybean oil alone in the same manner. After the 7-day pretreatment, the right femoral artery was covered with PE50 (polyethylene tube 50, outer diameter: 0.965 mm, length: about 1.5 mm) as a cuff. The animals were sacrificed after 5 weeks. Blood was collected, and the cuff was removed under perfusion fixation via puncture of the left ventricle. For pathological evaluation, Elastica van Gieson (EVG) staining was performed. As a result, the ratio of I/M (intima/media) in vascular intimal hyperplasia resulted from vascular injury due to the cuff decreased in the NIK-333 treatment groups compared with the control group.

For data set [2], the system named is 3T3-KLF5 cells. The data set is described as follows: Growth of cells with stable KLF5 (living cell count). Type of data set: cell-based. The following applies: for living cell count: 10^−8 to 10^−5 M, 24 hours, serum-free, FIG. 5. How it is done:
(§1) “3T3-KLF5 cells”, cells in which KLF5 was stably expressed (obtained by subcloning cDNA of KLF5 in a 3×FLAG expression vector to prepare a construct of 3×FLAG-KLF5, then transfecting 3T3 cells with the construct, and culturing the transfectants in the presence of G418 for 2 weeks to clone G418 resistant cells, control cells not containing KLF5 which were prepared in the same manner are referred to as 3T3-mock cells), were seeded in DMEM medium containing 10% FBS and penicillin G/streptomycin at a rate of 1×10^5 cells/well (6-well plate) and cultured overnight at 37° C. in a 5% CO2 incubator, and then the medium was changed to DMEM medium containing penicillin G/streptomycin (serum-free). The cells were added with NIK-333 dissolved in DMSO after 2 hours, cultured for 24 hours, and then counted.

Data set [3] relates to 3T3-mock cells. The data set is described as follows: Growth of control cells not containing KLF5 (living cell count). The following applies: for living cell count: 10^−8 to 10^−5 M, 24 hours, serum-free, FIG. 5. The format is cell-based. How it is done:
as §1

The subject of data set [4] is neointimal formation in injured blood vessels. The following applies: administered to wild type mice; Nature Medicine, 8, pp.856-863, 2002; cited from earlier work.
Data set [5] has as its system KLF5. The following applies: reporter assay using cells; Nature Medicine, 8, pp.856-863, 2002; cited from earlier work. In general terms: Reporter assays use an easily measured gene product as a stand-in for the process of interest.
In data set [6] the test system is Fibroblast-derived 3T3 cells. The data set is described as follows: Cell growth of fibroblast 3T3 (living cell count). The format is cell-based. How it is done:
Fibroblast-derived 3T3 cells were seeded on a 24-well plate at a rate of 1×10^6 cells/well and left for 12 hours. Then, NIK-333 and ATRA were added at 10^−7 to 10^−4 M, and living cells were counted 24, 36 and 48 hours later. NIK-333 and ATRA were dissolved in DMSO.

In data set [7] the target is T1, transcription factor KLF5 (PDGF-A promoter activation under overexpression of RARγ) (Homo sapiens, UniProt Q13887).
T1 construct: expressed in transfected cells; host or cells: COS1 cells
The data set is described as follows: Luciferase assay of KLF5-dependent PDGF-A promoter activation, COS1 cells cotransfected with KLF5 and RARγ. Type of data set: cell-based. The note with it: Example 1-2. How it is done: (§2) COS1 cells were seeded on a 24-well plate at a rate of 5×10^4 cells/well and cultured overnight at 37° C. in a 5% CO2 incubator. Transfection was performed by using TransFast (registered trade name, Promega) transfection reagent according to the protocol attached to the reagent. Specifically, the cells were added with pCAG/KLF5 or empty vector thereof (pCAG), pRSh/RARα, pRSh/RARβ, pRSh/RARγ or empty vector thereof (pRS-RSV) and PDGF-A promoter (−900)-Luciferase and cultured at 37° C. in a 5% CO2 incubator for 48 hours. NIK-333 was dissolved in dimethyl sulfoxide (DMSO); and added at 10^−12 to 10^−5 M. Then, a luciferase assay was performed by using Dual Luciferase Reporter Assay System (Promega). […] This KLF5-dependent PDGF-A promoter activation under overexpression of RARα was inhibited by NIK-333 (Lanes 5 to 12). […] On the other hand, it was noted that the KLF5-dependent PDGF-A promoter activation action under overexpression of RARβ was not affected by NIK-333.

The conditions of data set [8]: clinical; N. Eng. J. Med., 334, pp.1561-1567, 1996; cited from earlier work.
Data set [9] concerns hepatoma recurrence. The note with it: clinical; long-term administration over one year; N. Eng. J. Med., 334, pp.1561-1567, 1996; cited from earlier work.
The target in data set [10] is T2, transcription factor KLF5 (PDGF-A promoter activation under overexpression of RARβ) (Homo sapiens, UniProt Q13887).
T2 construct: expressed in transfected cells; host or cells: COS1 cells
The experiment in a line: Luciferase assay of KLF5-dependent PDGF-A promoter activation, COS1 cells cotransfected with KLF5 and RARβ. The format is cell-based. The note with it: Example 1-2, FIG. 3. The procedure:
as §2

Data set [11] can be described thus: Influence on mouse testes weight and body weight. The format is in vivo, C57BL6/N mice. How it is done: Eight-week old male C57BL6/N mice (10 animals/group) were used. In an amount of 50 mg/kg or 100 mg/kg of NIK-333 dissolved in soybean oil was orally given once daily every day for 5 weeks. The control group received soybean oil alone in the same manner. Body weights were measured after 5 weeks. The animals were sacrificed, then the testes were observed by visual observation, and the testes weights were measured.

Data set [12] has as its system vascular intimal hyperplasia resulted from vascular injury due to the cuff. The experiment in a line: Mouse cuff-induced injury model, Example 3-1 (HE staining). The format is in vivo, C57BL6/N mice. The note with it: for I/M ratio: HE staining, 5 weeks after cuff. How it is done:
Vascular remodeling analysis was performed by using a cuff-induced injury model. Usefulness of this model in relation to vascular remodeling has been reported (Physiol. Genomics, 2, pp.13-30, 2000; Circulation, 104, pp.2716-2721, 2001; Circulation, 106, pp.847-853, 2002). For this experiment, 8-week old male C57BL6/N mice (10 animals/group) were used. In an amount of 50 mg/kg of NIK-333 dissolved in soybean oil was orally given once a day and every day from 7 days before placement of a cuff (placement of polyethylene tube around blood vessel) to the day before sacrifice. The control group received soybean oil alone in the same manner. After the 7-day pretreatment, the right femoral artery was covered with PE50 (polyethylene tube 50) as a cuff. The animals were sacrificed after 5 weeks. Blood was collected, and the cuff was removed under perfusion fixation via puncture of the left ventricle. For pathological evaluation, hematoxylin/eosin (HE) staining was performed. As a result, the ratio of I/M (intima/media) in vascular intimal hyperplasia resulted from vascular injury due to the cuff decreased in the NIK-333 treatment group compared with the control group.

Data set [13] deals with T3, transcription factor KLF5 (PDGF-A promoter activation under overexpression of RARα) (Homo sapiens, UniProt Q13887).
T3 construct: expressed in transfected cells; host or cells: COS1 cells
The data set is described as follows: Luciferase assay of KLF5-dependent PDGF-A promoter activation, COS1 cells cotransfected with KLF5 and RARα. The format is cell-based. The procedure: COS1 cells were seeded on a 24-well plate at a ratio of 5×10^4 cells/well and cultured at 37° C. in a 5% CO2 incubator for 12 hours. Transfection was performed by using TransFast (registered trade name, Promega) transfection reagent according to the protocol attached to the reagent. Specifically, the cells were added with pCAG/KLF5 or empty vector thereof (pCAG), pCMX/RARα or empty vector thereof (pCMX) and PDGF-A promoter (−900)-Luciferase and cultured at 37° C. in a 5% CO2 incubator for 48 hours. NIK-333 was dissolved in dimethyl sulfoxide (DMSO), and added at 10^−7 to 10^−5 M. Then, a luciferase assay was performed by using Dual Luciferase Reporter Assay System (Promega). In contrast to the transfection of the empty vector for KLF5 and the empty vector for RARα (Lane 1), the transfection of the KLF5 gene alone (Lane 2) and transfection of the RARα gene alone (Lane 3), the transfection of the KLF5 and RARα genes (Lane 4) activated the PDGF-A promoter. This KLF5-dependent PDGF-A promoter activation action under overexpression of RARα was inhibited by NIK-333 (Lanes 5 to 7).
as §2

Where [14] appears, read: 50 mg/kg orally once daily for 5 weeks.
Where [15] appears, read: 100 mg/kg orally once daily for 5 weeks.

T3 sequence (P10276 whole entry partner): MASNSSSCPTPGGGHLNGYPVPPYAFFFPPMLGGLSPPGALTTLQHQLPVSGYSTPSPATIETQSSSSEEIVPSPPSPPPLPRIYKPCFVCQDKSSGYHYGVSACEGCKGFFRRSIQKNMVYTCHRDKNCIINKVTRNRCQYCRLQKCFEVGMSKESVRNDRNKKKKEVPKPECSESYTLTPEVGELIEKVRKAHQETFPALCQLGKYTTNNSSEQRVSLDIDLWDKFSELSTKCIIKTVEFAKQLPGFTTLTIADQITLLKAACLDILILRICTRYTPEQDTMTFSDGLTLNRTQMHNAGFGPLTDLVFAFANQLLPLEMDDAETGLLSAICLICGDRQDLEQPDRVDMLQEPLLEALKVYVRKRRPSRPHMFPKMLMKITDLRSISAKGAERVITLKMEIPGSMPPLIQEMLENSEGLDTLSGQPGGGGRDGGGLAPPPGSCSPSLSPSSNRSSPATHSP
T3 sequence (Q13887 whole entry): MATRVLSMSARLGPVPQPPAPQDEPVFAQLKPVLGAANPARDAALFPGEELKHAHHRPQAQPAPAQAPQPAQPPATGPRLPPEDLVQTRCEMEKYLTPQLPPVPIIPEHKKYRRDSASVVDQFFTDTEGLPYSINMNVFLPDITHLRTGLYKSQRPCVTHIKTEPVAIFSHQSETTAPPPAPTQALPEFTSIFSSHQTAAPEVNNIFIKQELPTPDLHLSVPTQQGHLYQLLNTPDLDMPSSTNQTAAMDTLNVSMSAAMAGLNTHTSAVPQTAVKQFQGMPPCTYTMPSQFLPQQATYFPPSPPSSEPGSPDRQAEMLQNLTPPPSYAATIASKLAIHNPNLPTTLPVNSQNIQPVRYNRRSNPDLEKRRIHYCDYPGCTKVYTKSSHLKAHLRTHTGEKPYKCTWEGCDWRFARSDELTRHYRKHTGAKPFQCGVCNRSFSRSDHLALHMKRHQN
T1 sequence (P13631 whole entry partner): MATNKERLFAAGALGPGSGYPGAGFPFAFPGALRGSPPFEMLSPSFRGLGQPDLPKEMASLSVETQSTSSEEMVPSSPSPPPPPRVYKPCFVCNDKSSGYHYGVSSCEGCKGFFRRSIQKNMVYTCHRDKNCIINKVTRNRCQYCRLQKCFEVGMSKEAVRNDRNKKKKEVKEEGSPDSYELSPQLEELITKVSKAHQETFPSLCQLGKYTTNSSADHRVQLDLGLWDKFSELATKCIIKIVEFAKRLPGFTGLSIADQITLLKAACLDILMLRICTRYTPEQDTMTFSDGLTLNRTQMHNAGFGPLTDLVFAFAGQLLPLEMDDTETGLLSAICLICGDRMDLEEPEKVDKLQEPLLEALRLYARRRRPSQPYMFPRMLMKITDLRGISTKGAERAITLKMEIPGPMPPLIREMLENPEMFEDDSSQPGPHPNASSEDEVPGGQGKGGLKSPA
T1 sequence (Q13887 whole entry): as the sequence (Q13887 whole entry) above
T2 sequence (Q13887 whole entry): as above

`CC1=C(/C=C/C(C)=C/C=C/C(C)=C/C(=O)O)C(C)(C)CCC1` [ATRA, all-trans-retinoic acid, reference compound]: the “I/M ratio (mean ± S.D.)” value in data set [1] (5 mg/kg orally once daily) came to 0.64 ± 0.3; in data set [1] (10 mg/kg orally once daily), 0.63 ± 0.2. Moreover, the “ratio of I/M (intima/media) compared with the control group” value in [1] (ATRA 5 or 10 mg/kg) is “no difference was observed”. In addition, the living cell count entry in data set [2] (3T3-KLF5 cells) and in [3] was “decrease of the living cell count was observed in a concentration-dependent manner” each time.
As for `CC1(C)CCC(C)(C)c2cc(NC(=O)c3ccc(C(=O)O)cc3)ccc21` [Am80], the “neointimal formation in injured blood vessels” value in data set [4] is given as “inhibited”. Further, the “transcription of PDGF-A induced by KLF5” value in [5] is recorded as “inhibited”.
For `CC(C)=CCC/C(C)=C/CC/C(C)=C/C=C/C(C)=C/C(=O)O` [NIK-333, (2E,4E,6E, 10E)-3,7,11,15-Tetramethyl-2,4,6,10,14-hexadecapentanoic acid], in data set [6] (3T3 cells), the “concentration from which cell growth was inhibited in a concentration dependent manner” value is ≥ 10^−7 M. Moreover, in data set [6] (3T3 cells, FIG. 4), the “cell growth inhibitory action compared with ATRA” value is given as “more potent than that of ATRA”. Moreover, the “cell growth of 3T3 cells (living cell count)” value in data set [6] (10^−7 to 10^−4 M, 24, 36 and 48 hours, FIG. 4) is listed as “inhibited cell growth in a concentration dependent manner”. The entries for the “I/M ratio (mean ± S.D.)” value in data set [1] (100 mg/kg orally once daily) and in [1] (200 mg/kg orally once daily) were 0.38 ± 0.2 and 0.09 ± 0.1, respectively. For the same molecule, the “ratio of I/M (intima/media) compared with the control group” value in data set [1] (NIK-333 100 or 200 mg/kg) is listed as “decreased”; in data set [12] (NIK-333 treatment group, Example 3-1), “decreased”. Moreover, the “action on living cell count compared with ATRA” value in data set [2] (3T3-KLF5 cells) and in [3] was “more potent than that of ATRA” each time. Further, the living cell count entry in data set [2] (3T3-KLF5 cells) and in data set [3] was “decrease of the living cell count was observed in a concentration-dependent manner” throughout. Also, the “survival rate of 3T3-KLF5 cells versus 3T3-mock cells” value in data set [2] (after the addition of NIK-333) is reported as “the survival rate of the 3T3-KLF5 cells was higher than that of the 3T3-mock cells”. In addition, the “KLF5-dependent activation of the PDGF-A promoter under overexpression of RARγ” value in data set [7] (COS1 cells, FIG. 3) is recorded as “inhibited”. Also, the “inhibitory action compared with ATRA” value was “more potent than that of ATRA” in data set [7] (RARγ) and “more potent than that of all-trans-retinoic acid (ATRA)” in data set [13] (Example 1-2, RARα). For the same molecule, in data set [8], the “liver function failure and adverse side effects observed with other retinoids” value is reported as “does not substantially induce”. Besides, the “recurrence of hepatoma after radical treatment” value in data set [9] is “significantly inhibited”. For the same molecule, in data set [10], the “KLF5-dependent PDGF-A promoter activation action under overexpression of RARβ” value is “not affected”. Further, the figures for the Body weight in [11] (setting [14]) and in data set [11] (setting [15]) were 20.8 ± 0.3 g and 21.2 ± 0.3 g, respectively. Also, the “Weight of both testes” value in data set [11] (setting [14]) is 0.1465 ± 0.0043 g; in data set [11] (setting [15]), 0.1360 ± 0.0026 g. The “body weight compared with the control group” value in data set [11] (50 or 100 mg/kg, 5 weeks) is reported as “no difference was observed”. In [11] (50 or 100 mg/kg, 5 weeks), the “testes weight compared with the control group” value is “no difference was observed”. Also, in data set [11] (50 or 100 mg/kg, 5 weeks), the “visual observation of the testes” value is recorded as “no abnormal finding was observed”. In addition, the I/M ratio came to 0.87 ± 0.29 in data set [12] (50 mg/kg orally once a day) and 0.75 ± 0.31 in data set [12] (100 mg/kg). Besides, in data set [13] (Example 1-1, COS1 cells, 10^−7 to 10^−5 M, FIG. 1), the “KLF5-dependent PDGF-A promoter activation action under overexpression of RARα” value is recorded as “inhibited”. Moreover, the “concentration from which the action showed concentration dependency” value in data set [13] (Example 1-1, COS1 cells, RARα) was ≥ 10^−7 M. In addition, the “KLF5-dependent PDGF-A promoter activation under overexpression of RARα” value in data set [13] (Example 1-2, COS1 cells, 10^−12 to 10^−5 M, FIG. 2) is “inhibited”. In data set [13] (Example 1-2, COS1 cells, RARα), the “concentration from which the inhibitory action was significantly concentration-dependent” value is reported as ≥ 10^−10 M.
